Test results reported in patent US20050197350A1, “Novel quinoline, tetrahydroquinazoline, and pyrimidine derivatives and methods of treatment related to the use thereof” (TAISHO PHARMACEUTICAL CO., LTD., priority 2003, published 2005).

The compounds below were run on MCH receptors (assay: MCH receptor activity class (method not given)). Settings: class by percent of control at 10^-7 M or IC50.

Structure (SMILES) | class
CN(C)c1ccnc(N[C@H]2CC[C@@H](NC(=O)c3cccc(OC(F)(F)F)c3)CC2)n1 [compound 272, N-(cis-4-{[4-(dimethylamino)pyrimidin-2-yl]amino}cyclohexyl)-3-(trifluoromethoxy)benzamide] | 1 (Class 1: The value of percent of control at 10^−7 M was less than 40% or the value of IC50 was less than 50 nM.)
CN(C)c1ccnc(NC2CCC(NC(=O)OCc3ccccc3)CC2)n1 (stereo not drawn) [compound 273] | 3 (Class 3 The value of percent of control at 10^−7 M was more than 60% or the value of IC50 was more than 200 nM.)
CN(C)c1ccnc(NC2CCC(NC(=O)OCc3ccc([N+](=O)[O-])cc3)CC2)n1 (stereo not drawn) [compound 274] | 3 (Class 3 The value of percent of control at 10^−7 M was more than 60% or the value of IC50 was more than 200 nM.)
Cc1cc(C(=O)N[C@H]2CC[C@@H](Nc3nccc(N(C)C)n3)CC2)ccc1Br [compound 275, 4-bromo-N-(cis-4-{[4-(dimethylamino)pyrimidin-2-yl]amino}cyclohexyl)-3-methylbenzamide] | 1 (Class 1: The value of percent of control at 10^−7 M was less than 40% or the value of IC50 was less than 50 nM.)
CN(C)c1ccnc(N[C@H]2CC[C@@H](NC(=O)c3cccc(I)c3)CC2)n1 [compound 276, N-(cis-4-{[4-(dimethylamino)pyrimidin-2-yl]amino}cyclohexyl)-3-iodobenzamide] | 1 (Class 1: The value of percent of control at 10^−7 M was less than 40% or the value of IC50 was less than 50 nM.)
CN(C)c1ccnc(N[C@H]2CC[C@@H](NC(=O)c3cccc(Cl)c3F)CC2)n1 [compound 277] | 3 (Class 3 The value of percent of control at 10^−7 M was more than 60% or the value of IC50 was more than 200 nM.)
Cc1ccc(C(=O)N[C@H]2CC[C@@H](Nc3nccc(N(C)C)n3)CC2)c(F)c1F [compound 278] | 3 (Class 3 The value of percent of control at 10^−7 M was more than 60% or the value of IC50 was more than 200 nM.)
CN(C)c1ccnc(N[C@H]2CC[C@@H](NC(=O)c3ccc(F)cc3Cl)CC2)n1 [compound 279] | 3 (Class 3 The value of percent of control at 10^−7 M was more than 60% or the value of IC50 was more than 200 nM.)
CN(C)c1ccnc(N[C@H]2CC[C@@H](NC(=O)c3ccc(F)c(Cl)c3F)CC2)n1 [compound 280] | 3 (Class 3 The value of percent of control at 10^−7 M was more than 60% or the value of IC50 was more than 200 nM.)
CN(C)c1ccnc(N[C@H]2CC[C@@H](NC(=O)CSc3ccccc3)CC2)n1 [compound 281] | 3 (Class 3 The value of percent of control at 10^−7 M was more than 60% or the value of IC50 was more than 200 nM.)
CN(C)c1ccnc(N[C@H]2CC[C@@H](NC(=O)c3cccc(C(F)(F)F)c3F)CC2)n1 [compound 282] | 3 (Class 3 The value of percent of control at 10^−7 M was more than 60% or the value of IC50 was more than 200 nM.)
CN(C)c1ccnc(N[C@H]2CC[C@@H](NC(=O)c3cc(C(F)(F)F)ccc3F)CC2)n1 [compound 283] | 3 (Class 3 The value of percent of control at 10^−7 M was more than 60% or the value of IC50 was more than 200 nM.)
COc1cccc(CC(=O)N[C@H]2CC[C@@H](Nc3nccc(N(C)C)n3)CC2)c1 [compound 285] | 3 (Class 3 The value of percent of control at 10^−7 M was more than 60% or the value of IC50 was more than 200 nM.)
CN(C)c1ccnc(N[C@H]2CC[C@@H](NC(=O)Cc3ccc(F)cc3)CC2)n1 [compound 286] | 3 (Class 3 The value of percent of control at 10^−7 M was more than 60% or the value of IC50 was more than 200 nM.)
COc1ccc(CC(=O)N[C@H]2CC[C@@H](Nc3nccc(N(C)C)n3)CC2)cc1 [compound 287] | 3 (Class 3 The value of percent of control at 10^−7 M was more than 60% or the value of IC50 was more than 200 nM.)
Cc1cc(C(=O)N[C@H]2CC[C@@H](Nc3nccc(N(C)C)n3)CC2)c(C(F)(F)F)o1 [compound 288] | 3 (Class 3 The value of percent of control at 10^−7 M was more than 60% or the value of IC50 was more than 200 nM.)
Cc1cc(C(=O)N[C@H]2CC[C@@H](Nc3nccc(N(C)C)n3)CC2)c(C)o1 [compound 289, N-(cis-4-{[4-(dimethylamino)pyrimidin-2-yl]amino}cyclohexyl)-2,5-dimethyl-3-furamide] | 2 (Class 2: The value of percent of control at 10^−7 M was from 40% to 60% or the value of IC′50 was from 50 nM to 200 nM.)
CCOc1ccccc1C(=O)N[C@H]1CC[C@@H](Nc2nccc(N(C)C)n2)CC1 [compound 290] | 3 (Class 3 The value of percent of control at 10^−7 M was more than 60% or the value of IC50 was more than 200 nM.)
CN(C)c1ccnc(N[C@H]2CC[C@@H](NC(=O)c3ccc(F)c(Cl)c3)CC2)n1 [compound 291, 3-chloro-N-(cis-4-{[4-(dimethylamino)pyrimidin-2-yl]amino}cyclohexyl)-4-fluorobenzamide] | 1 (Class 1: The value of percent of control at 10^−7 M was less than 40% or the value of IC50 was less than 50 nM.)
Cc1ccc(C(=O)N[C@H]2CC[C@@H](Nc3nccc(N(C)C)n3)CC2)cc1F [compound 292] | 3 (Class 3 The value of percent of control at 10^−7 M was more than 60% or the value of IC50 was more than 200 nM.)

Structure (SMILES) | class
CN(C)c1ccnc(N[C@H]2CC[C@@H](NC(=O)CC3CCCC3)CC2)n1 [compound 293] | 3 (Class 3 The value of percent of control at 10^−7 M was more than 60% or the value of IC50 was more than 200 nM.)
COc1cc(OC)cc(C(=O)N[C@H]2CC[C@@H](Nc3nccc(N(C)C)n3)CC2)c1 [compound 294, N-(cis-4-{[4-(dimethylamino)pyrimidin-2-yl]amino}cyclohexyl)-3,5-dimethoxybenzamide] | 1 (Class 1: The value of percent of control at 10^−7 M was less than 40% or the value of IC50 was less than 50 nM.)
CN(C)c1ccnc(N[C@H]2CC[C@@H](NC(=O)c3ccc(C#N)cc3)CC2)n1 [compound 295] | 3 (Class 3 The value of percent of control at 10^−7 M was more than 60% or the value of IC50 was more than 200 nM.)
CN(C)c1ccnc(N[C@H]2CC[C@@H](NC(=O)c3cc(C(F)(F)F)cc(C(F)(F)F)c3)CC2)n1 [compound 296, N-(cis-4-{[4-(dimethylamino)pyrimidin-2-yl]amino}cyclohexyl)-3,5-bis(trifluoromethyl)benzamide] | 1 (Class 1: The value of percent of control at 10^−7 M was less than 40% or the value of IC50 was less than 50 nM.)
CN(C)c1ccnc(N[C@H]2CC[C@@H](NC(=O)/C=C/c3ccc([N+](=O)[O-])cc3)CC2)n1 [compound 297] | 3 (Class 3 The value of percent of control at 10^−7 M was more than 60% or the value of IC50 was more than 200 nM.)
CN(C)c1ccnc(N[C@H]2CC[C@@H](NC(=O)Cc3ccccc3Br)CC2)n1 [compound 298] | 3 (Class 3 The value of percent of control at 10^−7 M was more than 60% or the value of IC50 was more than 200 nM.)
Cc1cc(C(=O)N[C@H]2CC[C@@H](Nc3nccc(N(C)C)n3)CC2)ccc1F [compound 299, N-(cis-4-{[4-(dimethylamino)pyrimidin-2-yl]amino}cyclohexyl)-4-fluoro-3-methylbenzamide] | 1 (Class 1: The value of percent of control at 10^−7 M was less than 40% or the value of IC50 was less than 50 nM.)
CN(C)c1ccnc(N[C@H]2CC[C@@H](NC(=O)c3ccccc3SC(F)F)CC2)n1 [compound 300] | 3 (Class 3 The value of percent of control at 10^−7 M was more than 60% or the value of IC50 was more than 200 nM.)
CN(C)c1ccnc(N[C@H]2CC[C@@H](NC(=O)c3cc(Cl)sc3Cl)CC2)n1 [compound 301] | 2 (Class 2: The value of percent of control at 10^−7 M was from 40% to 60% or the value of IC′50 was from 50 nM to 200 nM.)
CCCSc1ncccc1C(=O)N[C@H]1CC[C@@H](Nc2nccc(N(C)C)n2)CC1 [compound 302] | 3 (Class 3 The value of percent of control at 10^−7 M was more than 60% or the value of IC50 was more than 200 nM.)
CN(C)c1ccnc(N[C@H]2CC[C@@H](NC(=O)c3cc(C(C)(C)C)nn3Cc3ccccc3)CC2)n1 [compound 303] | 2 (Class 2: The value of percent of control at 10^−7 M was from 40% to 60% or the value of IC′50 was from 50 nM to 200 nM.)
CN(C)c1ccnc(N[C@H]2CC[C@@H](NC(=O)c3cc(C(C)(C)C)nn3C)CC2)n1 [compound 304] | 3 (Class 3 The value of percent of control at 10^−7 M was more than 60% or the value of IC50 was more than 200 nM.)
C/C(=C\c1ccccc1)C(=O)N[C@H]1CC[C@@H](Nc2nccc(N(C)C)n2)CC1 [compound 305] | 3 (Class 3 The value of percent of control at 10^−7 M was more than 60% or the value of IC50 was more than 200 nM.)
CN(C)c1ccnc(N[C@H]2CC[C@@H](NC(=O)c3cncc(Br)c3)CC2)n1 [compound 306] | 3 (Class 3 The value of percent of control at 10^−7 M was more than 60% or the value of IC50 was more than 200 nM.)
CN(C)c1ccnc(N[C@H]2CC[C@@H](NC(=O)Cc3cccc4ccccc34)CC2)n1 [compound 307, N-(cis-4-{[4-(dimethylamino)pyrimidin-2-yl]amino}cyclohexyl)-2-(1-naphthyl)acetamide] | 2 (Class 2: The value of percent of control at 10^−7 M was from 40% to 60% or the value of IC′50 was from 50 nM to 200 nM.)
Cc1cc(C(=O)N[C@H]2CC[C@@H](Nc3nccc(N(C)C)n3)CC2)nn1C(C)(C)C [compound 308] | 3 (Class 3 The value of percent of control at 10^−7 M was more than 60% or the value of IC50 was more than 200 nM.)
CN(C)c1ccnc(N[C@H]2CC[C@@H](NC(=O)c3csc4ccccc34)CC2)n1 [compound 309] | 3 (Class 3 The value of percent of control at 10^−7 M was more than 60% or the value of IC50 was more than 200 nM.)
CN(C)c1ccnc(N[C@H]2CC[C@@H](NC(=O)c3ccccc3)CC2)n1 [compound 311, N-(cis-4-{[4-(dimethylamino)pyrimidin-2-yl]amino}cyclohexyl)benzamide] | 3 (Class 3 The value of percent of control at 10^−7 M was more than 60% or the value of IC50 was more than 200 nM.)
CN(C)c1ccnc(N[C@H]2CC[C@@H](NC(=O)c3cc4ccccc4s3)CC2)n1 [compound 312] | 3 (Class 3 The value of percent of control at 10^−7 M was more than 60% or the value of IC50 was more than 200 nM.)
